Measurements taken from patent publication US7402601B2, “Pharmaceuticals for the treatment of rejection reactions in organ transplantations” (Sanofi-Aventis Deutschland GmbH, priority 1991, dated 2008).

Key:
in vivo = details: ip
Description: Acute Toxicity after Intraperitoneal Administration
The acute toxicity after intraperitoneal administration of the test substances was determined with NMRI mice (20 to 25 g) and SD rats (120 to 195 g). The test substance was suspended in a 1% strength sodium carboxymethyl-cellulose solution. The different dosages of the test substance were administered to the mice in a volume of 10 ml/kg of body weight and to the rats in a volume of 5 ml/kg of body weight. Per dosage, 10 animals were used. After 3 weeks, the acute toxicity was determined by the method of Litchfield and Wilcoxon.

allophilic antibodies = experiment: Formation of allophilic antibodies after heart transplantation (Brown-Norway to Lewis rats), complement cytotoxicity on donor spleen cells, Trypan Blue exclusion; assay type: in vivo
Description: The action of compound 2 on the formation of allophilic antibodies.
Male Brown-Norway rats with a weight of 200 to 250 g are used as heart donors. The hearts are transplanted into male Lewis rats of the same weight. All rats are supplied with a standard diet and water and kept in an environment with 12 hours of light and darkness.
[…] The titer of allophilic antibodies in the blood of the recipient rats is determined by incubating various dilutions of the recipient blood with spleen cells of the donor rats (Brown-Norway rats) and rabbit complement. The cytotoxicity is determined by the Trypan Blue exclusion method. The p value for the antibodies is determined using the standard t-test and compared with the untreated control animals.
Treatment with compound 2 begins on the 4th day after transplantation. 10 mg/kg of compound 2 in each case are administered i.p. once per day. The number of animals which are simultaneously treated is 5 (n=5). Treatment ends on the 17th day.

[1] = tested on: naturally occurring xenophilic antibodies (NXA); experiment: Naturally occurring xenophilic antibodies (NXA) in non-sensitized rats, flow cytometry; assay type: in vivo; details: non-sensitized LEW rats, 10 mg/kg every day i.p., 11th day
Description: 2 to 3 month-old rats (LEW) are intraperitoneally (i.p.) sensitized with 2×10^7 human peripheral blood lymphocytes. The i.p. administration of compound 2 starts 4 days before sensitization and ends 10 days after sensitization of the rats. Serum samples are taken from the tail vein and stored at −80° C.; the activity of complement is avoided by heat deactivation.
The naturally occurring xenophilic antibodies (NXA) and the xenophilic antibodies induced by sensitization (SXA) are titrated and live human peripheral blood lymphocytes are added (45 min. at 20° C.). After intensive washing, FITC-labeled goat-anti-rat IgG or IgM antibodies are added and the binding to SXA or NXA is quantitatively determined by flow cytometry (FACScan, Becton Dickinson).
The serum of male LEW rats contain NXA which bind to vital human peripheral blood lymphocytes, to be precise usually with an average IgM titer of 1:4 and an average IgG titer of less than 1:1. The rats (n=8) which are treated every day with 10 mg/kg of compound 2, show a 30% reduction in their IgG titer and a 50% reduction in their IgM titer on the 11th day.

Cc1oncc1C(=O)Nc1ccc(C(F)(F)F)cc1 [Compound 1, N-(4-trifluoromethyl)-5-methylisoxazole-4-carboxanilide]
LD50 at 3 weeks (in vivo; NMRI, mouse): 185 mg/kg
LD50 at 3 weeks (in vivo; SD, rat): 170 mg/kg

C/C(O)=C(\C#N)C(=O)Nc1ccc(C(F)(F)F)cc1 [Compound 2, N-(4-trifluoromethylphenyl)-2-cyano-3-hydroxycrotonamide]
mean of the cytotoxicity values (allophilic antibodies; serum dilution 1:5, day 0 after transplantation (before treatment start on day 4), 10 mg/kg i.p. once per day): 3%
mean of the cytotoxicity values (allophilic antibodies; serum dilution 1:5, day 4 after transplantation (treatment begins), 10 mg/kg i.p. once per day): 63%
mean of the cytotoxicity values (allophilic antibodies; serum dilution 1:5, day 7 after transplantation, 10 mg/kg i.p. once per day from day 4): 36%
mean of the cytotoxicity values (allophilic antibodies; serum dilution 1:5, day 11 after transplantation, 10 mg/kg i.p. once per day from day 4): 19%
mean of the cytotoxicity values (allophilic antibodies; serum dilution 1:5, day 14 after transplantation, 10 mg/kg i.p. once per day from day 4): 22%
mean of the cytotoxicity values (allophilic antibodies; serum dilution 1:5, day 17 after transplantation, 10 mg/kg i.p. once per day from day 4): 11%
mean of the cytotoxicity values (allophilic antibodies; serum dilution 1:25, day 0 after transplantation (before treatment start on day 4), 10 mg/kg i.p. once per day): 3%
mean of the cytotoxicity values (allophilic antibodies; serum dilution 1:25, day 4 after transplantation (treatment begins), 10 mg/kg i.p. once per day): 58%
mean of the cytotoxicity values (allophilic antibodies; serum dilution 1:25, day 7 after transplantation, 10 mg/kg i.p. once per day from day 4): 31%
mean of the cytotoxicity values (allophilic antibodies; serum dilution 1:25, day 11 after transplantation, 10 mg/kg i.p. once per day from day 4): 16%
mean of the cytotoxicity values (allophilic antibodies; serum dilution 1:25, day 14 after transplantation, 10 mg/kg i.p. once per day from day 4): 11%
mean of the cytotoxicity values (allophilic antibodies; serum dilution 1:25, day 17 after transplantation, 10 mg/kg i.p. once per day from day 4): 6%
mean of the cytotoxicity values (allophilic antibodies; serum dilution 1:125, day 0 after transplantation (before treatment start on day 4), 10 mg/kg i.p. once per day): 4%
mean of the cytotoxicity values (allophilic antibodies; serum dilution 1:125, day 4 after transplantation (treatment begins), 10 mg/kg i.p. once per day): 34%
mean of the cytotoxicity values (allophilic antibodies; serum dilution 1:125, day 7 after transplantation, 10 mg/kg i.p. once per day from day 4): 20%
mean of the cytotoxicity values (allophilic antibodies; serum dilution 1:125, day 11 after transplantation, 10 mg/kg i.p. once per day from day 4): 9%
mean of the cytotoxicity values (allophilic antibodies; serum dilution 1:125, day 14 after transplantation, 10 mg/kg i.p. once per day from day 4): 6%
mean of the cytotoxicity values (allophilic antibodies; serum dilution 1:125, day 17 after transplantation, 10 mg/kg i.p. once per day from day 4): 5%
LD50 at 3 weeks (in vivo; NMRI, mouse): 150 mg/kg
reduction in IgG titer (NXA) [1]: 30%
reduction in IgM titer (NXA) [1]: 50%
